Test results from the supplement of paper PMC10307832.

Compound: Cc1cnc(CNC(=O)c2c(=O)c3ccc(N4CCCN(C)CC4)nc3n3c2sc2ccccc23)cn1 [CX-5461] + COc1cccc2cc(-c3nc([C@H]4CC[C@H](C(=O)O)CC4)n4ncnc(N)c34)[nH]c12 [OSI-027] (partner 0.5 µM)
Test: relative viability (nuclei count vs DMSO), 5 days (fraction); higher = more cells survive
Details: first compound 1 µM
Outline: (§1)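 A single step with final 0.05% Triton X-100, 1% formaldehyde and 1 ug/ml Hoechst fixed the cells and stained nuclei 5 days after treatment. Lung cancer cell lines in 1536-well plates had been treated by pin tool the day after seeding with one drug alone or a fixed anchor-drug dose plus five library-drug doses (not always all listed) in √10 steps, and nuclei were counted on 4× images. Relative viability is the ratio of nuclei in treated wells to nuclei in vehicle wells, taken as the median of duplicate plates.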

Cell Line | relative viability
NCI-H1648 | 0.27
NCI-H1563 | 0.52

Compound: Cc1cnc(CNC(=O)c2c(=O)c3ccc(N4CCCN(C)CC4)nc3n3c2sc2ccccc23)cn1 [CX-5461] + N=C(N)NC(=N)NCCc1ccccc1 [Phenformin] (partner 250 µM)
Test: as above
Details: first compound 0.01 µM
Outline: as §1

Cell Line | relative viability
NCI-H522 | 0.653
NCI-H1623 | 0.556
NCI-H727 | 0.602
NCI-H1650 | 0.409
NCI-H1993 | 0.478
SK-LU-1 | 0.615
NCI-H838 | 0.748
LCLC-103H | 0.377
NCI-H520 | 0.577
NCI-H2126 | 0.576
EMC-BAC-2 | 0.507
NCI-H2085 | 0.768
HCC-366 | 0.657
NCI-H1666 | 0.542
NCI-H596 | 0.754
NCI-H1395 | 0.473
NCI-H2087 | 0.411
NCI-H2342 | 0.645
LK-2 | 0.611
H3255 | 0.373
COR-L23 | 0.472
COR-L 105 | 0.496
LOU-NH91 | 0.801
ChaGo-K-1 | 0.512
NCI-H358 | 0.349
NCI-H2405 | 0.411
A549 | 0.155
NCI-H1563 | 0.663

Same assay, conditions: first compound 0.03162 µM

Cell Line | relative viability
NCI-H522 | 0.614
NCI-H1623 | 0.588
NCI-H727 | 0.601
NCI-H1650 | 0.275
NCI-H1993 | 0.476
SK-LU-1 | 0.545
NCI-H838 | 0.652
LCLC-103H | 0.349
NCI-H520 | 0.503
NCI-H2126 | 0.542
EMC-BAC-2 | 0.518
NCI-H2085 | 0.691
HCC-366 | 0.657
NCI-H1666 | 0.551
NCI-H596 | 0.869
NCI-H1395 | 0.426
NCI-H2087 | 0.406
NCI-H2342 | 0.53
LK-2 | 0.443
H3255 | 0.367
COR-L23 | 0.431
COR-L 105 | 0.557
LOU-NH91 | 0.7
ChaGo-K-1 | 0.527
NCI-H358 | 0.347
NCI-H2405 | 0.363
A549 | 0.165
NCI-H1563 | 0.677

Same assay, conditions: first compound 0.1 µM

Cell Line | relative viability
NCI-H522 | 0.654
NCI-H1623 | 0.556
NCI-H727 | 0.974
NCI-H1650 | 0.191
NCI-H1993 | 0.457
SK-LU-1 | 0.397
NCI-H838 | 0.629
LCLC-103H | 0.326
NCI-H520 | 0.717
NCI-H2126 | 0.513
EMC-BAC-2 | 0.399
NCI-H2085 | 0.704
HCC-366 | 0.627
NCI-H1666 | 0.505
NCI-H596 | 0.879
NCI-H1395 | 0.437
NCI-H2087 | 0.398
NCI-H2342 | 0.535
LK-2 | 0.386
H3255 | 0.374
COR-L23 | 0.414
COR-L 105 | 0.414
LOU-NH91 | 0.697
ChaGo-K-1 | 0.474
NCI-H358 | 0.316
NCI-H2405 | 0.415
A549 | 0.104
NCI-H1563 | 0.531

Same assay, conditions: first compound 0.3162 µM

Cell Line | relative viability
NCI-H1623 | 0.616
NCI-H727 | 0.464
NCI-H1650 | 0.33
NCI-H1993 | 0.452
LCLC-103H | 0.364
NCI-H520 | 0.303
NCI-H2126 | 0.589
EMC-BAC-2 | 0.299
NCI-H2085 | 0.658
HCC-366 | 0.604
NCI-H1666 | 0.548
NCI-H596 | 0.723
NCI-H1395 | 0.341
NCI-H2087 | 0.316
NCI-H2342 | 0.675
H3255 | 0.301
COR-L23 | 0.426
COR-L 105 | 0.405
ChaGo-K-1 | 0.299
NCI-H358 | 0.236
NCI-H2405 | 0.326
A549 | 0.0393
NCI-H1563 | 0.627

Same assay, conditions: first compound 1 µM

Cell Line | relative viability
NCI-H522 | 0.593
NCI-H1623 | 0.593
NCI-H727 | 0.617
NCI-H1650 | 0.148
NCI-H1993 | 0.416
SK-LU-1 | 0.229
NCI-H838 | 0.431
LCLC-103H | 0.297
NCI-H520 | 0.36
NCI-H2126 | 0.407
EMC-BAC-2 | 0.271
NCI-H2085 | 0.587
HCC-366 | 0.253
NCI-H1666 | 0.507
NCI-H596 | 0.637
NCI-H1395 | 0.396
NCI-H2087 | 0.32
NCI-H2342 | 0.586
LK-2 | 0.111
H3255 | 0.338
COR-L23 | 0.301
COR-L 105 | 0.306
LOU-NH91 | 0.594
ChaGo-K-1 | 0.268
